Assay [1] concerns the target LMP7 (purified human immuno proteasome) (Homo sapiens, UniProt P28062). The experiment in a line: Determination of LMP7 activity (fluorescence intensity assay, Suc-LLVY-AMC). In kind it is biochemical. Conditions: for IC50: purified human immuno proteasome 0.5 nM, 40 μM Suc-LLVY-AMC, 37° C. The protocol:
Measurement of LMP7 inhibition is performed in 384 well format based on fluorescence intensity assay.
Purified human immuno proteasome (0.5 nM) and serial diluted compounds in DMSO (range of concentrations from 10 μM to 38 pM) or controls (0.5% DMSO) are incubated for 30 minutes at 37° C. in assay buffer containing 50 mM Tris pH 7.4 and 0.03% SDS. The reaction is initiated by the addition of the fluorogenic peptide substrate, Suc-LLVY-AMC (Bachem I-1395), at a concentration of 40 μM. After 90 minutes of incubation at 37° C., fluorescence intensity is measured at λex=350 nm and λem=450 nm with a fluorescence reader (BMG Pherastar reader or equivalent).
Purified human immuno proteasome (0.25 nM) and serial diluted compounds in DMSO (range of concentrations from 10 μM to 38 pM) or controls (0.5% DMSO) are incubated for 30 minutes at 37° C. in assay buffer containing 50 mM Tris pH 7.4 and 0.03% SDS. The reaction is initiated by the addition of the fluorogenic peptide substrate, Suc-LLVY-AMC (Bachem I-1395), at a concentration of 40 μM. After 90 minutes of incubation at 37° C., fluorescence intensity is measured at λex=350 nm and λem=450 nm with a fluorescence reader (BMG Pherastar reader or equivalent).

Assay [2] addresses Beta5 (purified human constitutive proteasome) (Homo sapiens, UniProt P28074). The experiment in a line: Determination of Beta5 activity (fluorescence intensity assay, Suc-LLVY-AMC). In kind it is biochemical. Particulars: purified human constitutive proteasome 1.0 nM, 40 μM Suc-LLVY-AMC, 37° C. The protocol: Measurement of Beta5 inhibition is performed in 384 well format based on fluorescence intensity assay.
Purified human constitutive proteasome (1.0 nM) and serial diluted compounds in DMSO (range of concentrations from 10 μM to 38 pM) or controls (0.5% DMSO) are incubated for 30 minutes at 37° C. in assay buffer containing 50 mM Tris pH 7.4 and 0.03% SDS. The reaction is initiated by the addition of the fluorogenic peptide substrate, Suc-LLVY-AMC (Bachem 1-1395), at a concentration of 40 μM. After 90 minutes of incubation at 37° C., fluorescence intensity is measured at λex=350 nm and λem=450 nm with a fluorescence reader (BMG Pherastar reader or equivalent).

Bounds are passed on as bounds.

On to `O=C(CC(C(=O)N[C@@H](Cc1ccsc1)B(O)O)c1cccc(Cl)c1)c1ccccc1` (mixture of isomers) [Example 3, [(1R)-1-{[2-(RS)-(3-chlorophenyl)-4-oxo-4-phenylbutanoyl]amino}-2-(3-thienyl)ethyl]boronic acid], for which, in assay [1], the “Selectivity LMP7 vs Beta5” value is “+++ (+++: Selectivity > 30)” and the half-inhibitory concentration (IC50) (commonly the point on the concentration scale where inhibition reaches its midpoint) was 0.05 to 0.5 µM. For the same compound, in assay [2], the IC50 is > 5 µM.

With `O=C(CC(C(=O)N[C@@H](Cc1ccsc1)B(O)O)c1ccc(Cl)cc1)c1ccccc1` (mixture of isomers) [Example 4, [(1R)-1-{[2-(RS)-(4-chlorophenyl)-4-oxo-4-phenylbutanoyl]amino}-2-(3-thienyl)ethyl]boronic acid], in assay [1], the “Selectivity LMP7 vs Beta5” value was “+++ (+++: Selectivity > 30)” and the IC50 was 0.05 to 0.5 µM. In assay [2], this compound yielded an IC50 of 0.5 to 5 µM.

For the compound `CC(CC(=O)c1ccccc1)C(=O)N[C@@H](Cc1ccsc1)B(O)O` (mixture of isomers) [Example 10, [(1R)-1-[(2-(RS)-methyl-4-oxo-4-phenylbutanoyl)amino]-2-(3-thienyl)ethyl]boronic acid], the concentration for half-maximal inhibition (IC50) in assay [1] was 0.5 to 5 µM; in assay [2], > 5 µM.

As for `COc1ccc(C(=O)CC(Cc2ccccc2)C(=O)N[C@@H](Cc2cccc(C(F)(F)F)c2)B(O)O)cc1` (mixture of isomers) [Example 27, {(1R)-1-{[2-(RS)-benzyl-4-(4-methoxyphenyl)-4-oxobutanoyl]amino}-2-[3-(trifluoromethyl)phenyl]ethyl}boronic acid], in assay [1], the “Selectivity LMP7 vs Beta5” value is reported as “+++ (+++: Selectivity > 30)” and the half-maximal inhibitory concentration (IC50) was < 0.05 µM. This compound also showed an IC50 in assay [2] of 0.5 to 5 µM.

For the compound `O=C(N[C@@H](Cc1ccsc1)B(O)O)[C@H]1CCCC[C@@H]1C(=O)c1ccccc1` (racemic) [Example 2, [(1R)-1-({[(1RS,2RS)-2-benzoylcyclohexyl]carbonyl}amino)-2-(3-thienyl)ethyl]boronic acid], the IC50 in assay [1] is 0.5 to 5 µM; in assay [2], > 5 µM.

Turning to `O=C(N[C@@H](Cc1ccsc1)B(O)O)[C@H]1CCC[C@@H]1C(=O)c1ccccc1` (racemic) [Example 5, [1-({[(1RS,2SR)-2-benzoylcyclopentyl]carbonyl}amino)-2-(3-thienyl)ethyl]boronic acid], the IC50 is 0.5 to 5 µM in assay [1] and > 5 µM in assay [2].

Turning to `CCc1cccc(C[C@H](NC(=O)[C@H](CC(=O)c2ccccc2)c2cccc(Cl)c2)B(O)O)c1` (single isomer, unassigned) [Example 14], in assay [1], the “Selectivity LMP7 vs Beta5” value is “+++ (+++: Selectivity > 30)” and the half-maximal inhibitory concentration (IC50) lay in the range of 0.05 to 0.5 µM. Besides, the IC50 in assay [2] lay in the range of 0.5 to 5 µM.

For `CCc1cccc(C[C@H](NC(=O)[C@H](CC(=O)c2ccccc2)c2ccc(Cl)cc2)B(O)O)c1` (single isomer, unassigned) [Example 15], in assay [1], the “Selectivity LMP7 vs Beta5” value is given as “+++ (+++: Selectivity > 30)” and the concentration for half-maximal inhibition (IC50) lay in the range of 0.05 to 0.5 µM. The IC50 in assay [2] is > 5 µM.

For `CCc1cccc(C[C@H](NC(=O)[C@@H](CC(=O)c2ccccc2)c2ccc(Cl)cc2)B(O)O)c1` (single isomer, unassigned) [Example 16], the half-inhibitory concentration (IC50) is 0.5 to 5 µM in assay [1] and > 5 µM in assay [2].

As for `COc1ccc(C(=O)C[C@H](Cc2ccccc2)C(=O)N[C@@H](Cc2ccsc2)B(O)O)cc1` (single isomer, unassigned) [Example 24], in assay [1], the “Selectivity LMP7 vs Beta5” value is listed as “+++ (+++: Selectivity > 30)” and the IC50 is < 0.05 µM. In assay [2], the IC50 lay within 0.05 to 0.5 µM.

For the compound `COc1ccc(C(=O)C[C@@H](Cc2ccccc2)C(=O)N[C@@H](Cc2ccsc2)B(O)O)cc1` (single isomer, unassigned) [Example 25], in assay [1], the “Selectivity LMP7 vs Beta5” value was “+++ (+++: Selectivity > 30)” and the 50% inhibitory concentration (IC50) was 0.05 to 0.5 µM. In addition, the half-maximal inhibitory concentration (IC50) in assay [2] was > 5 µM.

Regarding `O=C(CCC(=O)c1ccccc1)N[C@@H](Cc1ccsc1)B(O)O` [Example 1, [(1R)-1-[(4-oxo-4-phenylbutanoyl)amino]-2-(3-thienyl)ethyl]boronic acid], in assay [1], the “Selectivity LMP7 vs Beta5” value is on record as “++ (++: 10 < Selectivity < 30)” and the IC50 is 0.05 to 0.5 µM. This compound showed an IC50 in assay [2] of 0.5 to 5 µM.

`CCc1cccc(C[C@H](NC(=O)CCC(=O)c2ccccc2)B(O)O)c1` [Example 6, {(1R)-2-(3-ethylphenyl)-1-[(4-oxo-4-phenylbutanoyl)amino]ethyl}boronic acid]: in assay [1], the “Selectivity LMP7 vs Beta5” value was “+++ (+++: Selectivity > 30)” and the IC50 is 0.05 to 0.5 µM. For the same compound, the 50% inhibitory concentration (IC50) in assay [2] is > 5 µM.

Turning to `CCc1cccc(C[C@H](NC(=O)CCC(=O)c2ccc(OC)cc2)B(O)O)c1` [Example 7, ((1R)-2-(3-ethylphenyl)-1-{[4-(4-methoxyphenyl)-4-oxobutanoyl]amino}ethyl)boronic acid], the “Selectivity LMP7 vs Beta5” value in assay [1] was “+++ (+++: Selectivity > 30)”. Moreover, the half-inhibitory concentration (IC50) is 0.05 to 0.5 µM in assay [1] and > 5 µM in assay [2].

`CCc1cccc(C[C@H](NC(=O)CCC(=O)c2ccccc2OC)B(O)O)c1` [Example 8, ((1R)-2-(3-ethylphenyl)-1-{[4-(2-methoxyphenyl)-4-oxobutanoyl]amino}ethyl)boronic acid]: the results for the concentration for half-maximal inhibition (IC50) in assay [1] and in assay [2] were 0.05 to 0.5 µM and > 5 µM, respectively.

Consider `COc1ccc(C(=O)CCC(=O)N[C@@H](Cc2ccsc2)B(O)O)cc1` [Example 9, [(1R)-1-{[4-(4-methoxyphenyl)-4-oxobutanoyl]amino}-2-(3-thienyl)ethyl]boronic acid], for which, in assay [1], the “Selectivity LMP7 vs Beta5” value was “++ (++: 10 < Selectivity < 30)” and the IC50 was 0.05 to 0.5 µM. Moreover, in assay [2], the half-inhibitory concentration (IC50) lay within 0.5 to 5 µM.

As to `CCc1cccc(C[C@H](NC(=O)CCC(=O)c2ccc(OC)cc2OC)B(O)O)c1` [Example 11, [(1R)-1-{[4-(2,4-dimethoxyphenyl)-4-oxobutanoyl]amino}-2-(3-ethylphenyl)ethyl]boronic acid], in assay [1], the “Selectivity LMP7 vs Beta5” value is listed as “+++ (+++: Selectivity > 30)” and the IC50 lay within 0.05 to 0.5 µM. The IC50 in assay [2] was > 5 µM.

`COc1ccccc1C(=O)CCC(=O)N[C@@H](Cc1ccsc1)B(O)O` [Example 12, [(1R)-1-{[4-(2-methoxyphenyl)-4-oxobutanoyl]amino}-2-(3-thienyl)ethyl]boronic acid]: the IC50 in assay [1] was 0.5 to 5 µM; in assay [2] it was > 5 µM.

`COc1ccc(C(=O)CCC(=O)N[C@@H](Cc2ccsc2)B(O)O)c(OC)c1` [Example 13, [(1R)-1-{[4-(2,4-dimethoxyphenyl)-4-oxobutanoyl]amino}-2-(3-thienyl)ethyl]boronic acid]: in assay [1], the “Selectivity LMP7 vs Beta5” value is “++ (++: 10 < Selectivity < 30)” and the IC50 is 0.05 to 0.5 µM. In assay [2], the IC50 is > 5 µM.

With `CCc1cccc(C[C@H](NC(=O)CCC(=O)c2ccc(-c3ccccc3)cc2)B(O)O)c1` [Example 17, [(1R)-1-[(4-biphenyl-4-yl-4-oxobutanoyl)amino]-2-(3-ethylphenyl)ethyl]boronic acid], in assay [1], the “Selectivity LMP7 vs Beta5” value was “++ (++: 10 < Selectivity < 30)” and the 50% inhibitory concentration (IC50) lay within 0.05 to 0.5 µM. This compound also came in with a concentration for half-maximal inhibition (IC50) in assay [2] of 0.5 to 5 µM.

On to `CCc1cccc(C[C@H](NC(=O)CCC(=O)c2ccc3ccccc3c2)B(O)O)c1` [Example 18, ((1R)-2-(3-ethylphenyl)-1-{[4-(2-naphthyl)-4-oxobutanoyl]amino}ethyl)boronic acid], for which, in assay [1], the “Selectivity LMP7 vs Beta5” value is on record as “+++ (+++: Selectivity > 30)” and the IC50 fell in the range of 0.05 to 0.5 µM. Moreover, the 50% inhibitory concentration (IC50) in assay [2] was in the range of 0.5 to 5 µM.

Take `CCc1cccc(C[C@H](NC(C)=O)B(O)O)c1` [Example 77, (R)-(1-acetamido-2-(3-ethylphenyl)ethyl)boronic acid]: the IC50 in assay [1] lay in the range of 0.5 to 5 µM.

The record behind these values is patent US9688702B2, “Alpha-amino boronic acid derivatives, selective immunoproteasome inhibitors” (Ares Trading S.A, priority 2011, dated 2017).
